Experimental data: patent US20230121245A1, “REGENERATIVE NONSTEROIDAL ANTI-INFLAMMATORY COMPOSITIONS, METHODS OF PRODUCTION, AND METHODS OF USE THEREOF” (CROWN SCIENTIFIC, L.L.C., priority 2021, published 2023)

Test system: TNFα
Experiment: LPS induced TNFα response in PBMCs (monocyte/macrophage model)
Format: cell-based, human
Conditions: 0.01-100 μM, compared to vehicle control (0.13% DMSO), 100 ng LPS, 24 hours
Method: Fresh leukoreduction system (LRS) cones of healthy donors aged 18-80 years old were purchased from Oklahoma Blood Institute. PBMCs were isolated from LRS cones using EasySep™ Direct Human PBMC Isolation Kit (cat #19654, StemCell Technologies) as per manufacturer's specifications. 1.5 million PBMCs were seeded in 0.5 ml of RPMI (11835030, Gibco) supplemented with 5% HPL (Millcreek), lx Glutamax (35050061, Gibco), 1×NEAA (11140050, Gibco) and 2 U/ml heparin (25021040030, Sagent Pharmaceuticals) in a 24 well plate and rested overnight. The following day, PBMCs were co-stimulated with 100 ng of lipopolysaccharide (LPS, 00-4976-93, Invitrogen) and different doses RNSA in a volume of 0.5 ml. RNSA doses were prepared in saline (R5201-01, Braun) supplemented with 5% HPL and 2 U/ml heparin. Betamethasone (Cayman, 20363), a positive control, was resuspended in DMSO (D4540, Sigma) and administered to PBMCs at different doses to a final 0.13% DMSO concentration. Vehicle for RNSA was 50% saline and for Betamethasone 0.13% DMSO for a 1 ml reaction. All samples were tested in technical triplicates. Treatment duration was 24 hours for all groups. After 24 hours, the supernatant was collected, spun at 5,000 g for 10 minutes and the cell free supernatant stored at −80 C. To detect TNFα, hTNFα Simple Plex assay quantification was performed on ELLA ELISA based detection method (ProteinSimple).

C[C@H]1C[C@H]2[C@@H]3CCC4=CC(=O)C=C[C@]4(C)[C@@]3(F)[C@@H](O)C[C@]2(C)[C@@]1(O)C(=O)CO [Betamethasone]
attenuation of TNFα response: 20-68%
